Source: the NIST ThermoML archive (doi:10.1016/j.jct.2006.03.010)

Assay: xn = mol fraction of the nth substance listed
Conditions: 101 kPa, Liquid; for speed of sound: Linear variable-path acoustic interferometer

ClC(Cl)Cl [trichloromethane] + CO
Conditions	mass density, 298.15 K [kg/m3]	mass density, 308.15 K [kg/m3]	speed of sound, 298.15 K [m/s]	speed of sound, 308.15 K [m/s]	viscosity, 298.15 K [mPa·s]	viscosity, 308.15 K [mPa·s]
x1 = 0.0501	852.42	842	1080	1048	0.587	0.523
x1 = 0.0959	907.6	896.56	1060	1029	0.612	0.545
x1 = 0.1501	967.31	955.55	1041	1010	0.635	0.564
x1 = 0.2007	1018.13	1005.77	1028	997	0.651	0.576
x1 = 0.2499	1063.89	1050.91	1017	986	0.657	0.584
x1 = 0.3015	1107.99	1094.32	1007	976	0.663	0.586
x1 = 0.3502	1146.56	1132.48	1000	969	0.66	0.588
x1 = 0.3966	1180.85	1166.26	994	963	0.658	0.584
x1 = 0.4498	1217.39	1202.34	989	958	0.651	0.582
x1 = 0.5047	1252.37	1236.78	984	954	0.641	0.572
x1 = 0.5506	1279.51	1263.63	981	950	0.633	0.569
x1 = 0.6033	1308.68	1292.64	979	948	0.619	0.56
x1 = 0.6515	1333.97	1317.33	977	946	0.612	0.552
x1 = 0.7032	1359.31	1342.39	976	945	0.601	0.55
x1 = 0.751	1381.31	1363.96	976	944	0.592	0.536
x1 = 0.7987	1402.09	1384.31	976	944	0.583	0.531
x1 = 0.85	1423.32	1405.26	977	945	0.574	0.523
x1 = 0.902	1443.49	1425.07	979	946	0.567	0.516
x1 = 0.9505	1461.44	1442.54	982	948	0.561	0.515
x1 = 1	1478.82	1459.45	985	950	0.556	0.513
